SMILES strings stand for the structures. Several values for one entry are separate records, joined by “and”; a condition that tells them apart may be missing. Equal entries are not always repeated. Where two headings read alike, the source gives them in different places.

Assay [1] has as its system L-929. As to the kind of experiment: Cell proliferation assay (MTT, 5 days). Type of assay: cell-based, murine. On the procedure:
(§1) Biological evaluation of the compounds […]
(§2) serial dilutions of the test compound were given to 120 µL of suspended cells (50.000/mL) in wells of 96-well plates. After 5 days of incubation growth inhibition (IC50) was determined using an MTT assay.9
(§3) Table S1:Medium conditions for different cell types.
(§4) Cell type Medium Additives
(§5) L-929 (DSMZ ACC 2) DME medium (high glucose) (Gibco) 10% fetal calf serum (Gibco) SKOV-3 DSMZ ATCC HTB Mc Coys-Medium (Gibco) 10% fetal calf serum (Gibco) […]
A549 (DSMZ ACC 107) DME medium (high glucose) (Gibco) 10% fetal calf serum (Gibco) KB 3.1 (DSMZ ACC 158) DME medium (high glucose) (Gibco) 10% fetal calf serum (Gibco) Ratjadone Compound Antiproliferative activity IC50 [nM]
KB-3.1: human cervix carcinoma, KB-V1: multi-drug-resistant human cervix carcinoma, K-562: human chronic myelogenous leukemia cell, PC-3: human prostate carcinoma, L-929: murine fibroblast
Figure S8: Structures of Ratjadone A-D and their antiproliferative activity (IC50 values in nM). Data published by Köster et al.10

Assay [2] relates to A-549. As to the kind of experiment: cells. Type of assay: cell-based, human. On the procedure: as §1, §2, §3, §4, §5
(§6) A549 (DSMZ ACC 107) DME medium (high glucose) (Gibco) 10% fetal calf serum (Gibco)

Assay [3] relates to SK-OV-3. As to the kind of experiment: cells. The format is cell-based, human. As to conditions: Homo sapiens, SK-OV-3, read-out: Antiproliferative activity IC50. The protocol: as §1, §2, §3, §4, §5, §6
Assay [4] deals with MCF-7. As to the kind of experiment: cells. Type of assay: cell-based, human. On the procedure:
as §1, §2, §3, §4, §5, §6

The subject of assay [5] is KB-3.1. As to the kind of experiment: cells. The format is cell-based, human. On the procedure: as §1, §2, §3, §4, §5, §6
Assay [6] addresses CRM1 (Homo sapiens, UniProt O14980). As to the kind of experiment: Nuclear export inhibition, fluorescent translocation biosensor in recombinant HeLa cells. Set-up: This cellular assay uses HeLa cells that express a recombinant fusion protein; endogenous in cells; host or cells: HeLa cells stably expressing the NLS-GST-GFP-RevNES translocation biosensor (HeLaRevBio). Type of assay: cell-based. As to conditions: nuclear export inhibition IC50, HeLa cells expressing translocation biosensor, 1 h incubation.

The test system of assay [7] is KB-3.1 cancer cells. As to the kind of experiment: Cell proliferation assay under folate free conditions (MTT). The format is cell-based, human. As to conditions: KB-3.1, folate receptor-positive, read-out: Antiproliferative activity IC50 of folate-ratjadone conjugates. On the procedure: Cell proliferation assay under folate free conditions
KB 3.1 (DSMZ ACC 158) cells were cultivated at 37 °C and 10 % CO2 in RMPI-medium without folic acid (Gibco) with 10% fetal calf serum (Gibco). 120 µL of suspended cells (100.000/mL) were seeded in wells of 96-well plates and after 24 h at 37 °C and 10 % CO2 the medium was removed, the cells were washed with PBS and RPMI-medium without folic acid (Gibco) + 10% dialyzed fetal calf serum (Sigma) were added to the cells, before after additional 24 h at 37°C and 10 % CO2 60 µL of serial dilutions of the test compound were given to cells. After 1, 2 and 5 days of incubation growth inhibition (IC50) was determined using an […]

[8] abbreviates: Mus musculus, L929, read-out: Antiproliferative activity IC50, L-929 murine fibroblast.
[9] abbreviates: Homo sapiens, A549, read-out: Antiproliferative activity IC50, A-549 human lung carcinoma.
Where [10] appears, read: Homo sapiens, MCF7, read-out: Antiproliferative activity IC50, MCF-7 human breast carcinoma.
Where [11] appears, read: Homo sapiens, KB 3-1, read-out: Antiproliferative activity IC50, KB-3.1 human cervix carcinoma.
[12] abbreviates: L-929 murine fibroblast, read-out: Antiproliferative activity IC50.
Where [13] appears, read: Mus musculus, L929, L-929 murine fibroblast, read-out: Antiproliferative activity IC50.
[14] abbreviates: KB 3-1, KB-3.1 human cervix carcinoma, read-out: Antiproliferative activity IC50.

Sequence of CRM1 (O14980 whole entry, the tested form may be a part): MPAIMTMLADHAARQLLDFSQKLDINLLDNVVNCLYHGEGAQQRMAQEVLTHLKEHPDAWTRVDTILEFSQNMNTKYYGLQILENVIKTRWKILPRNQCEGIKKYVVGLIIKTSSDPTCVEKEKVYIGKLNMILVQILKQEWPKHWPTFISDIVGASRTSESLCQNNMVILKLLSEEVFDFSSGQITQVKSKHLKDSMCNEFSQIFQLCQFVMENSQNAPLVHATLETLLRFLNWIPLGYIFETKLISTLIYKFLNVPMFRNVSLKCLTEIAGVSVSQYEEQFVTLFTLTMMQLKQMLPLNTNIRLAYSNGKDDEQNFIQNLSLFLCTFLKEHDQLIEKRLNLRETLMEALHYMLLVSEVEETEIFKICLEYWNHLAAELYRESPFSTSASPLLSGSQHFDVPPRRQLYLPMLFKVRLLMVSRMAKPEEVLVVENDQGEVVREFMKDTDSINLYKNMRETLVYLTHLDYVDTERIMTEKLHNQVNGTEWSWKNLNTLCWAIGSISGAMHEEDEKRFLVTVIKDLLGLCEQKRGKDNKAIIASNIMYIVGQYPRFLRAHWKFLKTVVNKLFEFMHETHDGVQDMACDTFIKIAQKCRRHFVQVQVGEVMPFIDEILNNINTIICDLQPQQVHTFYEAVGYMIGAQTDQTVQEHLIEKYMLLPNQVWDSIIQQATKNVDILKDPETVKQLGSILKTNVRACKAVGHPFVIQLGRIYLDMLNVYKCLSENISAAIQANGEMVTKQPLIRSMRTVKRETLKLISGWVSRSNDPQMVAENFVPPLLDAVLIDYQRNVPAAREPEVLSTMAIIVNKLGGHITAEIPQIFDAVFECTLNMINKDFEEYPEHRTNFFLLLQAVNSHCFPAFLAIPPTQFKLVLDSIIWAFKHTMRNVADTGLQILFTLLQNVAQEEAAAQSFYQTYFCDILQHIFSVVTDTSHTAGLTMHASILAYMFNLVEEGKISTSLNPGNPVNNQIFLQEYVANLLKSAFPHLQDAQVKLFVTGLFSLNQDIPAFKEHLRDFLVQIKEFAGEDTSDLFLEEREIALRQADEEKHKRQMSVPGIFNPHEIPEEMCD

The IC50 is the concentration at which inhibition is half-maximal. Take `C/C=C/[C@@H]1O[C@H](C(=O)/C=C/C=C(\C)C[C@@H](C)/C=C(C)\C=C\[C@H]2CC=CC(=O)O2)C[C@@H](O)[C@@H]1C` [Compound 13, 16-oxoratjadone]: the IC50 in assay [1] (setting [8]) is 12.6 nM; in assay [1] (read-out: Antiproliferative activity IC50, L-929 murine fibroblast), 12.6 nM; in assay [2] (setting [9]), 1.76 nM; in assay [3], 0.24 nM; in assay [4] (setting [10]), 0.22 nM; in assay [5] (setting [11]), 2.57 nM. Moreover, the IC50 in assay [6] was 52.5 nM.
In the case of `C/C=C/[C@@H]1O[C@H]([C@H](O)/C=C/C=C(\C)C[C@@H](C)/C=C(C)\C=C\[C@H]2CC=CC(=O)O2)CC(=O)[C@@H]1C` [Compound 14, 19-oxoratjadone], the IC50 in assay [1] (setting [8]) is 1.15 nM; in assay [2] (setting [9]), 0.1 nM; in assay [3], 0.16 nM; in assay [4] (setting [10]) it was 0.48 nM; in assay [5] (setting [11]) it was 0.36 nM; in assay [6], 13.3 nM.
For the molecule `C/C=C/[C@@H]1O[C@H](C(=O)/C=C/C=C(\C)C[C@@H](C)/C=C(C)\C=C\[C@H]2CC=CC(=O)O2)CC(=O)[C@@H]1C` [Compound 15, 16,19-dioxoratjadone], the 50% inhibitory concentration (IC50) in assay [1] (setting [8]) was 24.3 nM; in assay [2] (setting [9]), 9.72 nM; in assay [3] it was 1.59 nM; in assay [4] (setting [10]), 2.87 nM; in assay [5] (setting [11]), 3.98 nM; in assay [6], 17.5 nM.
With `C/C=C/[C@@H]1O[C@H]([C@H](N)/C=C/C=C(\C)C[C@@H](C)/C=C(C)\C=C\[C@H](O)CC(N)CC(=O)OC)C[C@@H](O)[C@@H]1C` (stereo partly drawn) [Compound 18], the IC50 turned out to be 3310 nM in assay [1] (setting [12]), 3310 nM in assay [1] (setting [13]) and 116 nM in assay [5] (setting [14]).
`C/C=C/[C@@H]1O[C@H]([C@@H](N)/C=C/C=C(\C)C[C@@H](C)/C=C(C)\C=C\[C@H](O)CC(N)CC(=O)OC)C[C@@H](O)[C@@H]1C` (stereo partly drawn) [Compound 19]: the IC50 in assay [1] (setting [12]) came to 1320 nM; in assay [1] (setting [13]), 1320 nM; in assay [5] (setting [14]), 165 nM.
`C#CCCC(=O)N[C@H](/C=C/C=C(\C)C[C@@H](C)/C=C(C)\C=C\[C@H]1CC=CC(=O)O1)[C@@H]1C[C@@H](O)[C@H](C)[C@H](/C=C/C)O1` [Compound 20]: the IC50 in assay [2] (setting [9]) was 0.58 nM; in assay [3], 0.44 nM; in assay [4] (setting [10]), 0.4 nM; in assay [5] (setting [11]), 1.05 nM; in assay [6], 23.2 nM.
In the case of `C#CCCOC(=O)N[C@@H](/C=C/C=C(\C)C[C@@H](C)/C=C(C)\C=C\[C@H]1CC=CC(=O)O1)[C@@H]1C[C@@H](O)[C@H](C)[C@H](/C=C/C)O1` [Compound 22], the IC50 in assay [2] (setting [9]) came to 2.45 nM; in assay [3], 1.2 nM; in assay [4] (setting [10]), 0.62 nM; in assay [5] (setting [11]), 1.23 nM; in assay [6], 12 nM.
On to `CC=CC1OC(C(C=CC=C(C)CC(C)C=C(C)C=CC2CC=CC(=O)O2)NC(=O)OCc2ccc(NC(=O)C(CCCNC(N)=O)NC(=O)C(NC(=O)OCC3C4CCC#CCCC43)C(C)C)cc2)CC(O)C1C` (stereo not drawn) [Compound 25, BCN-O(CO)HN-Val-Cit-pABO(CO)-16R-Aminoratjadone], for which the IC50 in assay [2] (setting [9]) was 39.5 nM; in assay [2] (read-out: Antiproliferative activity IC50, A-549 human lung carcinoma), 39.5 nM; in assay [3], 34.7 nM; in assay [4] (setting [10]) it was 20.2 nM; in assay [4] (read-out: Antiproliferative activity IC50, MCF-7 human breast carcinoma), 20.2 nM; in assay [5] (setting [11]), 25.1 nM. In addition, the IC50 in assay [5] (read-out: Antiproliferative activity IC50, KB-3.1 human cervix carcinoma) is 25.1 nM; in assay [6], 246 nM and 346 nM.
In the case of `C/C=C/[C@@H]1O[C@H]([C@@H](/C=C/C=C(\C)C[C@@H](C)/C=C(C)\C=C\[C@H]2CC=CC(=O)O2)NC(=O)CCSSc2ccccn2)C[C@@H](O)[C@@H]1C` [Compound 31, 2-PySS(CH2)2(CO)-16R-Aminoratjadone], the IC50 in assay [2] (setting [9]) is 30.6 nM; in assay [3] it was 24.6 nM; in assay [4] (setting [10]), 26 nM; in assay [5] (setting [11]), 8.8 nM; in assay [6] it was 44.1 nM.
As for `C/C=C/[C@@H]1O[C@H]([C@H](O)/C=C/C=C(\C)C[C@@H](C)/C=C(C)\C=C\[C@H]2CC=CC(=O)O2)CC(N)[C@@H]1C` (stereo partly drawn) [Compound 33, 19-aminoratjadone], the IC50 came out at 4.39 nM in assay [2] (setting [9]); 1.4 nM in assay [3]; 2.1 nM in assay [4] (setting [10]); 6.67 nM in assay [5] (setting [11]); 70 nM in assay [6].
For `C#CCNC1C[C@@H]([C@H](O)/C=C/C=C(\C)C[C@@H](C)/C=C(C)\C=C\[C@H]2CC=CC(=O)O2)O[C@@H](/C=C/C)[C@H]1C` (stereo partly drawn) [Compound 35, N-Propargyl-19-aminoratjadone] the same measures were 1.12 nM, 2.63 nM, 1.31 nM, 1.23 nM and 18.3 nM.
`C/C=C/[C@@H]1O[C@H]([C@@H](/C=C/C=C(\C)C[C@@H](C)/C=C(C)\C=C\[C@H]2CC=CC(=O)O2)NC(=O)OCc2ccc(NC(=O)[C@H](CCCNC(N)=O)NC(=O)[C@@H](NC(=O)OC[C@@H]3[C@@H]4CCc5nnn(CCC[C@H](NC(=O)CC[C@H](NC(=O)c6ccc(NCc7cnc8nc(N)nc(O)c8n7)cc6)C(=O)O)C(=O)N[C@H](CCCCN)C(=O)O)c5CC[C@@H]43)C(C)C)cc2)C[C@@H](O)[C@@H]1C` [FA-9-Val-Cit-pABA-16R-aminoratjadone]: the IC50 in assay [7] was determined as 50.9 nM.
On the same count and under the same terms, for `C/C=C/[C@@H]1O[C@H]([C@@H](/C=C/C=C(\C)C[C@@H](C)/C=C(C)\C=C\[C@H]2CC=CC(=O)O2)NC(=O)OCc2ccc(NC(=O)[C@H](CCCNC(N)=O)NC(=O)[C@@H](NC(=O)OCC3C4CCc5nnn(CCC[C@H](NC(=O)[C@@H](CC(=O)O)NC(=O)[C@@H](CC(=O)O)NC(=O)[C@@H](CC(=O)O)NC(=O)CC[C@H](NC(=O)c6ccc(NCc7cnc8nc(N)nc(O)c8n7)cc6)C(=O)O)C(=O)N[C@H](CC(=O)O)C(=O)N[C@H](CC(=O)O)C(=O)N[C@H](CCCCN)C(=O)O)c5CCC43)C(C)C)cc2)C[C@@H](O)[C@@H]1C` (stereo partly drawn) [FA-10-Val-Cit-pABA-16R-aminoratjadone] the value was 35.3 nM; for `C/C=C/[C@@H]1O[C@H]([C@@H](/C=C/C=C(\C)C[C@@H](C)/C=C(C)\C=C\[C@H]2CC=CC(=O)O2)NC(=O)OCc2ccc(NC(=O)[C@H](CCCNC(N)=O)NC(=O)[C@@H](NC(=O)OCC3C4CCc5nnn(CCC[C@H](NC(=O)[C@@H](CC(=O)O)NC(=O)[C@@H](CC(=O)O)NC(=O)[C@H](CCCn6nnc7c6CCC6C(CC7)C6COC(=O)N[C@H](C(=O)N[C@@H](CCCNC(N)=O)C(=O)Nc6ccc(COC(=O)N[C@H](/C=C/C=C(\C)C[C@@H](C)/C=C(C)\C=C\[C@H]7CC=CC(=O)O7)[C@@H]7C[C@@H](O)[C@H](C)[C@H](/C=C/C)O7)cc6)C(C)C)NC(=O)[C@@H](CC(=O)O)NC(=O)[C@@H](CC(=O)O)NC(=O)[C@H](CCCn6nnc7c6CCC6C(CC7)C6COC(=O)N[C@H](C(=O)N[C@@H](CCCNC(N)=O)C(=O)Nc6ccc(COC(=O)N[C@H](/C=C/C=C(\C)C[C@@H](C)/C=C(C)\C=C\[C@H]7CC=CC(=O)O7)[C@@H]7C[C@@H](O)[C@H](C)[C@H](/C=C/C)O7)cc6)C(C)C)NC(=O)[C@@H](CC(=O)O)NC(=O)[C@@H](CC(=O)O)NC(=O)CC[C@H](NC(=O)c6ccc(NCc7cnc8nc(N)nc(O)c8n7)cc6)C(=O)O)C(=O)O)c5CCC43)C(C)C)cc2)C[C@@H](O)[C@@H]1C` (stereo partly drawn) [FA-11-(Val-Cit-pABA-16R-aminoratjadone)3], 45 nM.
Regarding `C/C=C/[C@@H]1O[C@H]([C@@H](/C=C/C=C(\C)C[C@@H](C)/C=C(C)\C=C\[C@H]2CC=CC(=O)O2)NC(=O)CCSSC[C@H](NC(=O)CC[C@H](NC(=O)c2ccc(NCc3cnc4nc(N)nc(O)c4n3)cc2)C(=O)O)C(=O)O)C[C@@H](O)[C@@H]1C` [FA-SS-16R-aminoratjadone], the IC50 in assay [7] (listed as FA-SS-16R-Aminoratjadone) and in assay [7] was 295 nM each time.

The values above are taken from PMC6540907, “The nuclear export inhibitor aminoratjadone is a potent effector in extracellular-targeted drug conjugates” (Chemical Science, 2019).
